According to ChEMBL document CHEMBL1121889, “Preparation and analgesic properties of amino acid derivatives of (-)-5,9 alpha-diethyl-2'-hydroxybenzomorphan” (J Med Chem, 1981):

How the values were obtained:
Format in all cases: protein assay
Opioid receptor [1] = biological target: T1, Opioid receptor (Rattus norvegicus, UniProt P33533+P34975+P33535); experiment: Compound was tested for its ability to displace [3H]- naloxone] from Opioid receptors in absence of NaCl
Opioid receptor [2] = biological target: T1, Opioid receptor; experiment: Compound was tested for its ability to displace [3H]- naloxone] from Opioid receptors in presence of NaCl (100 mM)
Opioid receptor [3] = biological target: T1, Opioid receptor; experiment: Compound was tested for its ability to displace [3H]naloxone from Opioid receptors in absence of NaCl
Opioid receptor [4] = biological target: T1, Opioid receptor; experiment: Compound was tested for its ability to displace [3H]naloxone from Opioid receptors in presence of NaCl (100 mM)

**Q.** For `CC[C@H]1[C@H]2Cc3ccc(O)cc3[C@]1(CC)CCN2`, which IC50 (Opioid receptor [1]) is on record?
**A.** 0.02 µM

**Q.** What about the IC50 (Opioid receptor [2]) of the same compound?
**A.** 0.36 µM

**Q.** Which results are given for `CCC1C2Cc3ccc(O)cc3C1(CC)CCN2C(=O)C(N)Cc1ccccc1.Cl` (stereo in doubt; 2d)?
**A.** IC50 (Opioid receptor [3]): 1.54 µM; IC50 (Opioid receptor [4]): 3.35 µM

**Q.** With `CCC1C2Cc3ccc(O)cc3C1(CC)CCN2C(=O)C(N)Cc1ccccc1.Cl` (stereo in doubt; 2e) as the compound, how does the IC50 (Opioid receptor [3]) read?
**A.** > 10 µM

**Q.** And the IC50 (Opioid receptor [4])?
**A.** > 10 µM

**Q.** How did the IC50 (Opioid receptor [3]) turn out when `CCC1C2Cc3ccc(O)cc3C1(CC)CCN2C(=O)C(N)CC(C)C` (centres undefined) was run?
**A.** 1.503 µM

**Q.** What about the IC50 (Opioid receptor [4]) of the same compound?
**A.** 6.384 µM

**Q.** What does the source list for `CCC1C2Cc3ccc(O)cc3C1(CC)CCN2C(=O)C(N)CCSC.Cl` (centres undefined)?
**A.** IC50 (Opioid receptor [3]): 0.301 µM; IC50 (Opioid receptor [4]): 5.586 µM

**Q.** For `CCC1C2Cc3ccc(O)cc3C1(CC)CCN2C(=O)CN.Cl` (centres undefined), which IC50 (Opioid receptor [3]) is on record?
**A.** 0.287 µM

**Q.** What about the IC50 (Opioid receptor [4]) of the same compound?
**A.** 8.184 µM

**Q.** Which results are given for `CCC1C2Cc3ccc(O)cc3C1(CC)CCN2C(=O)C(N)CCCN=C(N)N.Cl` (centres undefined)?
**A.** IC50 (Opioid receptor [3]): 0.0155 µM; IC50 (Opioid receptor [4]): 0.66 µM
